Legend:
Format in all cases: cell-based, human
[1] = tested on: BT-20 breast cancer cells; test: Immunofluorescence (anti-α-tubulin / toto-3) morphology, BT-20; details: 25 μM, 48-72 hr
Protocol: In some experiments, immunofluorescence was used to examine the morphologic features of vanadocene-treated cancer cells. At the end of the indicated treatment period, cells were washed twice with PBS and fixed in 2% paraformaldehyde. The cells were permeabilized and non-specific binding sites were blocked with 2.5% BSA in PBS containing 0.1% Triton X-100 for 30 min. Tubulin expression was examined by immunofluorescence using a monoclonal antibody against α-tubulin (Sigma Chemical Co, St. Louis, Mo.) at a dilution of 1:1000 and an anti-mouse IgG conjugated to FITC. Cells were washed in PBS and counterstained with toto-3 (Molecular Probes Inc., Eugene, Oreg.) for 10 min at a dilution of 1:1000. Cells were washed again with PBS and the coverslips were mounted with Vectashield (Vector Labs, Burlingame, Calif.) and viewed with a confocal microscope (Bio-Rad MRC 1024) mounted in a Nikon Labhophot upright microscope. Digital images were saved on a Jaz disk and processed with Adobe Photoshop software (Adobe Systems, Mountain View, Calif.).

HL-60 cells = test: MTT cytotoxicity assay of oxovanadium(IV) compounds, HL-60; details: 48 hr
Protocol: The cytotoxicity of oxovanadium (W) complexes listed in Table 6 were tested against 9 different human cancer cell lines was performed using the MTT (3-[4,5-dimethylthiazol-2-yl]-2,5-diphenyl tetrazolium bromide) assay (Boehringer Mannheim Corp., Indianapolis, Ind.) as described previously (20). Briefly, exponentially growing tumor cells were seeded into a 96-well plate at a density of 4×10^4cells/well and incubated with medium containing the oxovanadium(IV) compounds concentrations ranging from 0.1 to 250 μM for 48 hours at 37° C. in a humidified 5% CO2 atmosphere. Triplicate wells were used for each treatment. To each well, 10 μl of MTT (0.5 mg/ml final concentration) was added and the plates were incubated at 37° C. for 4 hours to allow MTT to form formazan crystals by reacting with metabolically active cells . The formazan crystals were solubilized overnight at 37° C. in a solution containing 10% SDS in 0.01 M HCl. The absorbence of each well was measured in a microplate reader (Labsystems) at 540 nm and a reference wavelength of 690 nm. To translate the OD540 values into the number of live cells in each well, the OD540 values were compared to those on standard OD540—versus—cell number curves generated for each cell line. The percent survival was calculated using the formula: % survival=Live cell number[test]/Live cell number [control]×100. The IC50 values were calculated by non-linear regression analysis using an Graphpad Prism software version 2.0 (Graphpad Software, Inc., San Diego, Calif.).

HS-SULTAN cells = test: In situ detection of apoptosis, confocal microscopy, HS-SULTAN; details: 48 hours after treatment
Protocol: Exponentially growing cells were seeded in 6-well tissue culture plates and incubated with fresh medium containing compounds. […] The cells were fixed in 2% paraformaldehyde, washed with PBS and pelleted by centrifuging the tubes at 1000 rpm for 5 min. Cells pellets were resuspended in 50 μl of PBS, transferred to superforst plus slides and allowed to attach for 15 min. The cells were permeabilized with 0.1% triton X-100 in 0.1% citrate buffer and incubated for 1 hr at 37° C. with the reaction mixture containing terminal deoxynucleotidyl transferase (TdT) and fluorescein isothiocyanate (FITC)-conjugated dUTP. Cells were washed with PBS to remove unbound reagents and the coverslips were mounted onto slides with Vectashield containing propidium iodide (Vector Labs, Burlingame, Calif.) and slides were viewed with a confocal laser scanning microscope. […] In control reactions, the TdT enzyme was omitted from the reaction mixture.

Molecule	morphological features of BT-20 cells [1]	IC50 (HL-60 cells) [nM]	apoptotic nuclei (FITC-dUTP / propidium iodide), HS-SULTAN (HS-SULTAN cells)
[Cl-].[Cl-].[V+4].c1cc[cH-]c1.c1cc[cH-]c1 [VDC, VCp2Cl2]	complete disruption of microtubules	–	–
bis(4,7-dimethyl-1,10-phenanthroline)sulfatooxovanadium(IV) [Compound 29]	–	980 ± 100	many apoptotic yellow nuclei

— US7091351B2, “Vanadium compounds for treating cancer” (Parker Hughes Institute, priority 1998, dated 2006)
